As a reminder, the Cmax is the peak of the concentration-time curve. As usually defined, the half-life is how long it takes for the measured level to halve.

Here are results for 1 compound from patent US8415342B2, “Besifloxacin ophthalmic composition for the treatment or control of infection” (Bausch & Lomb Incorporated, priority 2008, dated 2013).

The nature of the series: Nonclinical ocular and systemic pharmacokinetics after topical ocular administration. In kind it is in vivo. The following applies: for peak plasma besifloxacin concentration, on average: topical ocular administration. The source says:
Results from the nonclinical ocular pharmacokinetic (PK) studies indicate that topical ocular administration of besifloxacin ophthalmic suspension, 0.6%, is associated with rapid absorption and distribution of besifloxacin into ocular tissues. […] However, based on the extensive ocular safety data available for besifloxacin, no adverse consequences are expected.
Systemic exposure to besifloxacin following topical ocular administration was low, with peak plasma besifloxacin concentrations of 7.6 and 9.2 ng/mL, respectively, on average.

As for `N[C@@H]1CCCCN(c2c(F)cc3c(=O)c(C(=O)O)cn(C4CC4)c3c2Cl)C1` [Besifloxacin, (R)-(+)-(3-amino-2,3,4,5,6,7-hexahydro-1H-azepin-1-yl)-8-chloro-1-cyclopropyl-6-fluoro-1,4,-dihydro-4-oxo-3-quinolinecarboxylic acid], the Cmax (non-excretory organs, topical or ocular, nonclinical, repeated (BID, TID, QID) topical ocular administration) is < 25 ng/g. In addition, the half-life (ocular tissues, topical or ocular, nonclinical, topical ocular 0.6% suspension, read-out: apparent half-life of elimination from ocular tissues) is > 5 h. Moreover, the “peak plasma besifloxacin concentration, on average” value (first of two groups not named ('respectively')) stood at 7.6 ng/mL and the “peak plasma besifloxacin concentration, on average” value (second of two groups not named ('respectively')) came to 9.2 ng/mL.
